Results: patent publication US20260091086A1, “POLYPEPTIDE COMBINATIONS AND USES THEREOF” (MEDIMMUNE LIMITED, priority 2024, published 2026)
Numbered stars: 1 amine (or outer) side, 2 acyl side, 3 side chain; on linkers, the order of the positions; unused ones are H or OH. Bridge positions count the residues as written; N and C are the ends. Square brackets hold non-standard residues; d marks the D form. Side chains are listed from the residue outwards. Ends that are not written are not given here. * marks the point of attachment. C18 diacid = O=C(O)CCCCCCCCCCCCCCCCC(=O)*; γGlu = O=C(O)[C@H](CCC(=O)[*:2])N[*:1]; αMeF = C[C@](N)(Cc1ccccc1)C(=O)O

Assays:
[1] = tested on: DIO Sprague-Dawley rats; test: Example 5: 19-day Q2D body weight study with Fc-linked agonists; type: in vivo, rat; conditions: mono-treatment 0.1 mg/kg Q2D SC, 19 days
Experimental: Study Design: Male DIO Sprague-Dawley rats were fed a high-fat diet (32.5% kcal fat, D12266B; Research Diets) for approximately 6 weeks prior to study start. Rats were dosed every other day (Q2D) SC for 19 days with Vehicle, GLP1-Fc (0.1 or 1 mg/kg), Fc-LAA (0.1 or 2 mg/kg) or a combination of GLP1-Fc and Fc-LAA (0.1+0.1 mg/kg, 0.1+2 mg/kg, 1+0.1 mg/kg or 1+2 mg/kg respectively) with an n=7/group. Body weight was monitored daily through-out study and shown below as % change of vehicle treatment. Data reported as mean±standard error of the mean (SEM). In this experiment, the LAA was an Fc-Amylin, and the GLP-1 agonist was dulaglutide (a GLP-1 agonist covalently linked to an Fc fragment of IgG4).

[2] = target: T1, rat calcitonin receptor (Rattus norvegicus, UniProt P32214); test: Target engagement estimate (unbound Cmax / unbound in vitro potency), calcitonin receptor; conditions: DACRA 10 nmol/kg vs LAA 30 nmol/kg
T1 construct: expressed in transfected cells; host or cells: HEK293
T1 sequence (P32214 25-516): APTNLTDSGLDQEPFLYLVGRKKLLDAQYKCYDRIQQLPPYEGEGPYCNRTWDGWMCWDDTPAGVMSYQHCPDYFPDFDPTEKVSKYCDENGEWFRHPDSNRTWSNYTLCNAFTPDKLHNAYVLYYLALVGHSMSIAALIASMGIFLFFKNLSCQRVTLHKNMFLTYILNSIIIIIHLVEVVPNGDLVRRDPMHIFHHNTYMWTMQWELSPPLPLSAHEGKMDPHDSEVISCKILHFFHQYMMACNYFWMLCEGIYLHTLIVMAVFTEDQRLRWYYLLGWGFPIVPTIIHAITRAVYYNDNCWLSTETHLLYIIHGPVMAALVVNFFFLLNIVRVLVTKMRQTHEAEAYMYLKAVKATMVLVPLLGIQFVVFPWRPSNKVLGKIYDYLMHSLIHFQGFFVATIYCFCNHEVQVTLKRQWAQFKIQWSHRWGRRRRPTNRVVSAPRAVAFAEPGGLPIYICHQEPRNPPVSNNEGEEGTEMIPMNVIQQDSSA
Experimental: Target engagement was estimated in the following way for each compound. The maximum concentration (Cmax) after subcutaneous injection was measured in separate rat pharmacokinetic studies and was dose-adjusted to the tested dose levels when appropriate, assuming dose linearity. Plasma protein binding was determined in vitro using 3B Pharmaceutical's Escalate Equilibrium Shift Assay or an in-house Surface Plasmon Resonance (SPR) assay. Peptide in vitro potency was determined via HTRF CAMP accumulation assay using HEK293 cells recombinantly expressing the rat calcitonin receptor or rat amylin receptor (calcitonin receptor plus RAMP3) in saline buffer containing 0.1% bovine serum albumin. The in vitro potencies (IC50s) for amylin and calcitonin were adjusted to unbound values by taking into account the albumin concentration in the assay and fraction unbound data, according to an established method (Wan H and Bergström F (2007), High Throughput Screening of Drug-Protein Binding in Drug Discovery, Journal of Liquid Chromatography & Related Technologies, 30:5, 681-700; doi: 10.1080/10826070701190989). Finally, the target engagement was calculated as the unbound Cmax divided by the unbound IC50, both for amylin and calcitonin. […] Uncertainty of parameter estimates was determined by bootstrapping, sampling single measurements randomly with replacement within each experiment (N=500). […]

[3] = tested on: AMY3R/CTR; test: Relative potency ratio, cAMP accumulation assays with 0.1% BSA, rat receptors; type: cell-based; conditions: 0.1% bovine serum albumin, n ≥ 5; potencies relative to pramlintide 100%
Experimental: Target engagement was estimated in the following way for each compound. The maximum concentration (Cmax) after subcutaneous injection was measured in separate rat pharmacokinetic studies and was dose-adjusted to the tested dose levels when appropriate, assuming dose linearity. Plasma protein binding was determined in vitro using 3B Pharmaceutical's Escalate Equilibrium Shift Assay or an in-house Surface Plasmon Resonance (SPR) assay. Peptide in vitro potency was determined via HTRF CAMP accumulation assay using HEK293 cells recombinantly expressing the rat calcitonin receptor or rat amylin receptor (calcitonin receptor plus RAMP3) in saline buffer containing 0.1% bovine serum albumin. The in vitro potencies (IC50s) for amylin and calcitonin were adjusted to unbound values by taking into account the albumin concentration in the assay and fraction unbound data, according to an established method (Wan H and Bergström F (2007), High Throughput Screening of Drug-Protein Binding in Drug Discovery, Journal of Liquid Chromatography & Related Technologies, 30:5, 681-700; doi: 10.1080/10826070701190989). Finally, the target engagement was calculated as the unbound Cmax divided by the unbound IC50, both for amylin and calcitonin. The Emax model was defined as aversion=E0+Emax×(ENG^h/(ENG^h+ED50^h)), where E0 is the baseline aversion, Emax is the maximum induced aversion, ENG is the receptor engagement, and h is the slope (Hill) parameter. Parameter estimation was performed according to a maximum likelihood approach with an additive error model, incorporating data from all compounds simultaneously. Uncertainty of parameter estimates was determined by bootstrapping, sampling single measurements randomly with replacement within each experiment (N=500). Numeric analyses were performed in MATLAB (R2023b; The MathWorks, Natick, MA). The aversion data are given as mean and standard error (N=9-11 per group). In this experiment, the LAA/SARA1 was that of SEQ ID NO: 11, SARA2 was eloralintide, DACRA1 was cagrilintide, and DACRA2 was petrelintide.

[4] = tested on: AMY3R/CTR; test: Relative potency ratio, cAMP accumulation assays with 0.1% BSA, human receptors; type: cell-based; conditions: 0.1% bovine serum albumin, n ≥ 5; potencies relative to pramlintide 100%
[5] = tested on: High-fat diet (DIO) fed rats; test: Example 9: 4-week LAA or DACRA monotherapy in DIO rats; type: in vivo, rat; conditions: for BW reduction compared to vehicle / reduction of cumulative food intake: 4 weeks; for proportion of body weight loss that was fat-mass specific: FIG. 8C
Excerpt: Study 1 Design: High-fat diet (DIO) fed rats were used to profile LAA or DACRA monotherapy to evaluate food intake, body weight-lowering and body composition effects in a 4-week study. In this experiment, the LAA was that of SEQ ID NO: 11 and the DACRA was cagrilintide.

[6] = tested on: diet-induced obese (DIO) Sprague-Dawley rats; test: Example 2: 28-day combination study in DIO rats (body weight, EchoMRI body composition); type: in vivo, rat; conditions: LAA 10 nmol/kg, GLP-1/GCG 5.4 nmol/kg or both
Experimental: Study Design: Male diet-induced obese (DIO) Sprague-Dawley rats were fed a high fat diet (45% fat, D12451; Research Diets) for 34 weeks prior to study start. […] Research Diets). […] Average body weight for all DIO rats at start of study was 722.4+10.1 grams. Body composition was measured by EchoMRI on day-7 and day 26. In this experiment, the LAA was that of SEQ ID NO: 11, and the GLP-1/GCG dual-agonist was cotadutide. Data reported as mean±standard error of the mean (SEM); data analysis performed using GraphPad Prism-statistical analysis performed using One-way ANOVA with Tukey ad hoc analysis.

[7] = tested on: DIO Sprague-Dawley rats; test: Example 3: 28-day body weight study in DIO rats; type: in vivo, rat; conditions: day 28
Experimental: Study Design: Male DIO Sprague-Dawley rats were fed a high-fat diet (32.5% kcal fat, D12266B; Research Diets) for approximately 8 weeks prior to study start. Rats were dosed once daily SC for 28 days with Vehicle, GLP-1/GCG (1.5 nmol/kg or 5 nmol/kg), LAA (7.5 nmol/kg) or a combination of GLP-1/GCG and LAA (1.5 and 7.5 nmol/kg, or 5 nmol/kg and 7.5 nmol/kg, respectively) with an n=6/group. Body weight was monitored daily throughout the study. Data reported as mean±standard error of the mean (SEM); data analysis performed using GraphPad Prism-statistical analysis performed using One-way ANOVA with Tukey ad hoc analysis (*p<0.05, **p<0.01, ***0<0.001, ****p<0.0001). In this experiment, the LAA was that of SEQ ID NO: 11, and the GLP-1/GCG dual-agonist was cotadutide.

[8] = tested on: DIO male pair-housed rats; test: Example 3 additional study: 28-day body weight, food intake and organ weights in DIO rats; type: in vivo, rat
Experimental: (§1) Study design: DIO male pair-housed rats fed a 32.5% high-fat diet (D12266B) for 7 weeks reached a mean body weight (BW) of ˜595 g. Rats were dosed SC daily for 28 days with vehicle (Vh), GLP-1/GCG dual agonist (1.5 or 5 nmol/kg), LAA (2.5 or 7.5 nmol/kg), or combination (1.5+2.5 nmol/kg, 1.5+7.5 nmol/kg, 5+2.5 nmol/kg, or 5+7.5 nmol/kg, respectively). Food intake (FI) and BW were measured daily. In chow fed lean rats, gastric emptying (GE) was measured via X-ray fluoroscopic quantification following SC injections of Vh, GLP-1/GCG dual agonist at 1, 3, or 10 nmol/kg or LAA at 1, 3, or 10 nmol/kg. In a subsequent acute GE study, lean rats received a single dose of Vh, GLP-1/GCG dual agonist (2 nmol/kg), LAA (2 nmol/kg) or GLP-1/GCG dual agonist+LAA combination (2+2 nmol/kg). In this experiment, the LAA was that of SEQ ID NO: 11, and the GLP-1/GCG dual-agonist was cotadutide.

[9] = tested on: chow fed lean rats; test: Example 3: acute gastric emptying by X-ray fluoroscopic quantification; type: in vivo, rat; conditions: acute SC
Experimental: as §1

[10] = target: T2, rat amylin receptor (calcitonin receptor plus RAMP3) (rat, UniProt P32214 25-516; Q9JJ73 23-147); test: cell-based or functional assay
T2 sequence (looked up) 1: T1 sequence (P32214 25-516)
T2 sequence (looked up) 2: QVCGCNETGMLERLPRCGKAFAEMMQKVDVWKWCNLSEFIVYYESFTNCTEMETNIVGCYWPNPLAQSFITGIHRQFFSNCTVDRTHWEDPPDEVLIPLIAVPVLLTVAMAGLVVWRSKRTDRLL

[11] = target: human amylin receptor 3 (hAMY3R; complex of hCTR and hRAMP3) (human, UniProt P30825 2-629; O60896 24-148, limits assumed); test: cell-based or functional assay
human amylin receptor 3 (hAMY3R; complex of hCTR and hRAMP3), sequence (P30825 2-629 limits assumed, chain 1 of 2): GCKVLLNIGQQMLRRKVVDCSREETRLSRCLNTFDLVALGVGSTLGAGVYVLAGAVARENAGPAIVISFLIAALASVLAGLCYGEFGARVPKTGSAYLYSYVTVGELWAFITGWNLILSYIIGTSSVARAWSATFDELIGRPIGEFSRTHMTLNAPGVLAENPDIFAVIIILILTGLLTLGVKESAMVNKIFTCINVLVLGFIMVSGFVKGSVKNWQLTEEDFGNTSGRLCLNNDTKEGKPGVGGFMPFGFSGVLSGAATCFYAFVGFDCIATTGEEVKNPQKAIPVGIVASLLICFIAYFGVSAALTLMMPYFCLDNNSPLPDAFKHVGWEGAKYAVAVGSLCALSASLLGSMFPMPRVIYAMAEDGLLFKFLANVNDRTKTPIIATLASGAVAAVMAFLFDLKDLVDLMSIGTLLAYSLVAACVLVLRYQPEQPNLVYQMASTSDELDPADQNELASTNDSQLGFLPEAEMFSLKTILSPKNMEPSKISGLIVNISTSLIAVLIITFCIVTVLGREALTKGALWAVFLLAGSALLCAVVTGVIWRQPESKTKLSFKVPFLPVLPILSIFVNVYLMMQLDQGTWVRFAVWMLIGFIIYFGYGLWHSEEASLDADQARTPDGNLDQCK
human amylin receptor 3 (hAMY3R; complex of hCTR and hRAMP3), sequence (O60896 24-148 limits assumed, chain 2 of 2): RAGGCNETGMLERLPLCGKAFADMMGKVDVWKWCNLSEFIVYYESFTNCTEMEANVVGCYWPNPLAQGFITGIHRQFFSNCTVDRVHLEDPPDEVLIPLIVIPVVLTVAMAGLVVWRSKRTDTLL

## dulaglutide [GLP1-Fc]
[1]
  body weight change normalized to vehicle: 1.0%

## cagrilintide [DACRA]
[2]
  calcitonin engagement, fold more than LAA: 2-3 fold
[3]
  Relative potency ratio (AMY3R/CTR), Rat: 0.01
[4]
  Relative potency ratio (AMY3R/CTR), Human: 0.08
[5]; 1 nmol/kg
  BW reduction compared to vehicle: −3±0.6%
  reduction of cumulative food intake: −7.1±2.1 % of vehicle
[5]; 3 nmol/kg
  BW reduction compared to vehicle: −5.3±1.1%
  reduction of cumulative food intake: −16±2.5 % of vehicle
[5]; 10 nmol/kg
  BW reduction compared to vehicle: −8.8±1.4%
  reduction of cumulative food intake: −23.9±3.5 % of vehicle
[5]; 20 nmol/kg
  BW reduction compared to vehicle: −11.6±0.9%
  reduction of cumulative food intake: −23.7±1.1 % of vehicle
[5]; end of study, 10 nmol/kg
  fat-mass loss: -15.5 ± 6.0 g
  proportion of body weight loss that was fat-mass specific: 54%
[5]; end of study, 20 nmol/kg
  proportion of body weight loss that was fat-mass specific: 61%
[5]; end of study, FIG. 8B
  lean mass: Lean mass was preserved in the LAA groups, unlike in the DACRA groups

## HSQGTFTSD-X10-SEYLDSERARDFVAWLEAGG-acid, wherein X10=Lys[ε-γE-Palmitoyl] [GLP-1/GCG]
[6]; SC QD, FIG. 1A
  body weight loss vs Vehicle: lost significantly more body weight than Vehicle treated rats
[6]; day 26
  fat mass change (EchoMRI): lost both fat and lean mass compared to Vehicle treated animals
  lean mass change (EchoMRI): lost both fat and lean mass compared to Vehicle treated animals
[7]; GLP-1/GCG 1.5 nmol/kg SC QD
  mean change in body weight normalized to Vehicle: −8.4%
[7]; GLP-1/GCG 5 nmol/kg SC QD
  mean change in body weight normalized to Vehicle: −25%
[8]; 28 days SC daily, GLP-1/GCG dual agonist 1.5 nmol/kg
  Vh corrected BW change (BW gain): −8.4%
[8]; 28 days SC daily, GLP-1/GCG dual agonist 5 nmol/kg
  Vh corrected BW change (BW gain): −25.0%
[8]; 28 days SC daily, monotherapy and combination groups
  Cumulative FI normalized to Vh: decreased in a dose-dependent manner
[8]; all GLP-1/GCG dual agonist 5 nmol/kg treated groups
  Liver lipids (%) vs Vh: lower than Vh
[8]; all combination groups, GLP-1/GCG dual agonist monotherapy at 5 nmol/kg
  Liver weights vs. Vh: Liver weights decreased
[9]; 1 nmol/kg
  GE AUC as % of Vehicle: 85%
[9]; 3 nmol/kg
  GE AUC as % of Vehicle: 49%
[9]; 10 nmol/kg
  GE AUC as % of Vehicle: 24%

## KCNTATCATQRLANFLVHSSNNFGPILPPTNVGSNTY-NH2 (disulfide 2-7) [Pramlintide]
[10]
  Relative potency ratio (AMY3R/CTR), Rat; cAMP accumulation assay, 0.1% BSA: 1 ratio
[11]
  Relative potency ratio (AMY3R/CTR), Human; cAMP accumulation assay, 0.1% BSA: 1 ratio

## K([γGlu-γGlu-C18 diacid])CNTATCATQRLANFLRHSSNN[αMeF]GPILPPTEVGSNTY-NH2 (disulfide 2-7) [LAA/SARA 1 (lipidated pramlintide analogue of SEQ ID NO: 11)]
[10]
  Relative potency ratio (AMY3R/CTR), Rat; cAMP accumulation assay, 0.1% BSA: 1.6 ratio
[11]
  Relative potency ratio (AMY3R/CTR), Human; cAMP accumulation assay, 0.1% BSA: 0.9 ratio
